# Columns and labels:
# [1] = tested on: symptomatic venous malformation of the left thigh; experiment: Electrosclerotherapy case, Example 1 (patient, MRI follow-up); assay type: in vivo, human; conditions: 1.5 mg bleomycin
# Protocol: FIGS. 1A and 1C show magnetic resonance of a symptomatic venous malformation of the left thigh in a patient previously treated with surgery and sclerotherapy;
# FIGS. 1B and 1D show magnetic resonance of the symptomatic venous malformation of FIG. 1A three months after one electrosclerotherapy session.
# A patient with a symptomatic venous malformation of the left thigh, causing swelling, pain, and partial immobility, recurring after surgery and sclerotherapy with Aethoxysklerol was treated with electrosclerotherapy using custom geometry electrodes and 1.5 mg bleomycin. […] Volume of the lesion before treatment: 26.79 cm^3; volume of the lesion after treatment: 0.00 cm^3.
# [2] = tested on: venous malformations that did not respond to previous invasive therapies; conditions: 17 patients, cited from earlier work
# [3] = tested on: venous malformation; experiment: Electrosclerotherapy case, Example 2 (patient, photographs, 3 years follow-up)
compound,measurement,setting,value
bleomycin,magnetic resonance imaging outcome of the malformation,"[1]; custom geometry electrodes, 3 months after one session of electrosclerotherapy",complete resolution of the malformation
same,adverse events,[1]; one electrosclerotherapy session,No documented adverse events
same,volume of the lesion after treatment,"[1]; one electrosclerotherapy session, volume before treatment 26.79 cm^3",0.00 cm^3
same,clinical improvement,[2]; after an average of 3.7 months and 1.12 sessions per patient,clinical improvement in all patients
same,decrease in lesion volume on magnetic resonance imaging (average),"[2]; bleomycin in combination with reversible electroporation, average 3.7 months and 1.12 sessions per patient",86%
same,functionality of nerves,"[3]; 2 sessions of electrosclerotherapy, finger electrode, 2 mg of Bleomycin per session, 3 years follow-up",Functionality of nerves is preserved
CCO [ethanol],outcome of sclerotherapy,"[3]; 7 sessions of ethanol sclerotherapy, without electric pulses",unsuccessfully treated
